From US9272985B2, “Antibacterial hydroxyphenyl compound” (FAB PHARMA S.A.S., priority 2009, dated 2016)
In brackets after ≈: the same amount, converted by molar mass. Read-outs that look alike come from different tables or passages of the source.

How the values were obtained:
[1] = rats, intravenous; cited from earlier work
[2] = Formulated solubility in 20% hydroxypropyl beta cyclodextrin aqueous solution with 5% dextrose; format: physicochemical; details: for solubility at 24 h: aqueous with cosolvent or surfactant or cyclodextrin, thermodynamic from solid, 20% hydroxypropyl beta cyclodextrin aqueous solution with 5% dextrose, 20° C.
Protocol: (§1) For each medium, the saturation of the medium is obtained by adding an excess of investigated compound to a given volume of test medium. The suspension is stirred at 20° C. for 24 h, the supernatant is then isolated and diluted to allow its injection into a chromatographic system. The concentration of the compound in solution for each medium is determined by external standardization.
Solubility was also investigated in a 20% hydroxypropyl beta cyclodextrin aqueous solution with 5% dextrose and the results are shown in Table 4.

[3] = Aqueous solubility at pH 7.4 buffer; format: physicochemical; details: for solubility at 24 h: aqueous buffer, thermodynamic from solid, 20° C.
Protocol: as §1

S. aureus CIP 54.146 = test: MIC determination using broth microdilution method; format: cell-based; details: Staphylococcus aureus, CIP54 / MSSA; MSSA CIP 54.146; range over a number of batches; read-out: MIC (μg/ml) (Broth microdilution) S. aureus CIP 54.146
Protocol: The compound of the invention is a useful antibacterial agent having a selective spectrum of activity in vitro against bacterial strains relying on FabI and related targets. […] The activity is presented as Minimum Inhibitory Concentration (MIC) expressed in μg/ml and was determined using broth microdilution or Agar dilution methods.
Antibacterial activity was determined on MSSA CIP 54.146 provided by the Centre de Ressources Biologiques de l'Institut Pasteur
This protocol is compliant with Clinical Laboratory Standards Institute (CLSI) methodology as described in M7-A7 document of the CLSI. The compound to be tested is diluted according to a geometric series of reason 2 in pure DMSO. Dilutions are transferred in sterile polystyrene microplates, followed by mid-log phase bacteria in cation-adjusted Muller-Hinton broth (ca-MHB, Fluka, Reference 90922) with a final inoculum of 5×10^5 cfu/ml. Microplates are incubated overnight at 35° C. MIC is defined as the lowest concentration of antimicrobial agent that completely prevents visible bacterial growth. All manipulations, but compound handling (in pure DMSO), are performed under sterile conditions. The final concentration of DMSO in the plates is 2%.

E. coli FabI enzyme = E. coli FabI enzyme (Escherichia coli, UniProt P0AEK4); test: In vitro inhibition of recombinant E. coli FabI enzyme; format: biochemical
Protocol: (§2) Compound inhibitory activity of FabI enzyme is measured in vitro by the IC50 determination using a fluorescence based assay.
(§3) The biochemical activity of the FabI enzyme is assessed using the following method.
The assay buffer “AB” contained 50 mM ADA (N-(2-acetamido)iminodiacetic acid monosodium salt) pH 6.5, 1 m M dithiothreitol, 0.006% Triton-X100 and 50 mM NaCl. The following components are added in a white polystyrene Costar plate (Ref 3912) up to a final volume of 55.5 μL: 1.5 μL DMSO or inhibitor dissolved in DMSO and 54 μL of a FabI/NADPH/NADP+ mixture in AB. After 60 min of pre-incubation at room temperature, the reaction is started by addition of 5 μL of trans-2-octenoyl N-acetylcysteamine thioester (t-o-NAC) to a final volume of 60.5 μL. […] Fluorescence intensity of NADPH (λex=360 nm, λem=520 nm) is measured immediately after t-O-NAC addition (T0), and approximately 50 min later (T50) by a Fluostar Optima (BMG) so as to achieve ±30% of NADPH conversion. Enzyme activity is calculated by first subtracting T0 signal to T50 and then subtracting background signal (FabI=0). Percentages of inhibition are calculated against untreated samples (Inhibitor=0) and IC50 are fitted to a classical Langmuir equilibrium model using XLFIT (IDBS).

[4] = Panel of 112 in vitro binding assays and 42 in vitro enzyme assays; details: except human norepinephrine transporter
[5] = target: human norepinephrine transporter (Homo sapiens, UniProt P23975); test: In vitro binding/enzyme panel: human norepinephrine transporter
[6] = system: target bacterial populations; test: Resistance and killing profile in target bacterial populations; format: cell-based
[7] = QT interval in conscious dogs after single intravenous infusion; format: in vivo
[8] = system: MSSA, MRSA, VISA and VRSA strains; test: In vitro activity against pathogenic S. aureus strains; format: cell-based, Staphylococcus aureus; details: several pathogenic strains
Description: (§4) Such increased solubility provides the significant advantage of allowing the compound of the invention to be administered intravenously.

[9] = Functional observation battery and evaluation of respiration function in rats; format: in vivo; details: compared to vehicle only
hERG = hERG (Homo sapiens, UniProt Q12809); test: hERG tail current amplitude in vitro; format: cell-based; details: after rundown subtraction
[10] = In vivo studies in rats and dogs (adverse effects)
[11] = system: MSSA, MRSA and VISA infections; test: Murine infection model; format: in vivo
Description: as §4

[12] = system: Streptococcus and Enterococcus; test: Activity against other Gram-positive pathogens not dependent upon FabI; format: cell-based
FabI from S. aureus = target: T1, FabI from S. aureus (Staphylococcus aureus, UniProt Q6GI75); test: In vitro inhibition of recombinant S. aureus FabI enzyme (fluorescence based assay); format: biochemical
T1 construct: made in house
T1 sequence (Q6GI75 1-256): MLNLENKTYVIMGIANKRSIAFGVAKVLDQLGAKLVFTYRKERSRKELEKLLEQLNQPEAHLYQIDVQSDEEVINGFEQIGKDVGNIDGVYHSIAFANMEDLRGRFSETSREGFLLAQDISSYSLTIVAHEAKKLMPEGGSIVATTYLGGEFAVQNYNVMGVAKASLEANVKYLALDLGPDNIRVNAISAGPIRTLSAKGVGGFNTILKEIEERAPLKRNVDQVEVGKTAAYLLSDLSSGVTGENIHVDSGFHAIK
Protocol: as §2
The protein FabI from S. aureus is prepared and purified using standard methods for recombinant protein expression after cloning of the gene in a prokaryotic expression vector.
as §3
The assay buffer “AB” contained 50 mM ADA (N-(2-acetamido)iminodiacetic acid monosodium salt) pH 6.5, 1 m M dithiothreitol, 0.006% Triton-X100 and 50 mM NaCl. The following components are added in a white polystyrene Costar plate (Ref 3912) up to a final volume of 55.5 μL: 1.5 μL DMSO or inhibitor dissolved in DMSO and 54 μL of a FabI/NADPH/NADP+ mixture in AB. […] Fluorescence intensity of NADPH (λex=360 nm, λem=520 nm) is measured immediately after t-O-NAC addition (T0), and approximately 50 min later (T50) by a Fluostar Optima (BMG) so as to achieve ±30% of NADPH conversion. Enzyme activity is calculated by first subtracting T0 signal to T50 and then subtracting background signal (FabI=0). Percentages of inhibition are calculated against untreated samples (Inhibitor=0) and IC50 are fitted to a classical Langmuir equilibrium model using XLFIT (IDBS).

Chain of E. coli FabI enzyme (P0AEK4 whole entry): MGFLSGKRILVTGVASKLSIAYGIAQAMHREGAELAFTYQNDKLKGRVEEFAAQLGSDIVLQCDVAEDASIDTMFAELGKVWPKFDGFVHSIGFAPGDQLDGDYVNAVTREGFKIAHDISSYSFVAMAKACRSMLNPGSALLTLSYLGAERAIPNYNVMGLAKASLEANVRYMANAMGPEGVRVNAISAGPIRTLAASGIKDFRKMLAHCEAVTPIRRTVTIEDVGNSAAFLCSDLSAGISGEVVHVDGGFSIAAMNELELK
Chain of human norepinephrine transporter (P23975 whole entry): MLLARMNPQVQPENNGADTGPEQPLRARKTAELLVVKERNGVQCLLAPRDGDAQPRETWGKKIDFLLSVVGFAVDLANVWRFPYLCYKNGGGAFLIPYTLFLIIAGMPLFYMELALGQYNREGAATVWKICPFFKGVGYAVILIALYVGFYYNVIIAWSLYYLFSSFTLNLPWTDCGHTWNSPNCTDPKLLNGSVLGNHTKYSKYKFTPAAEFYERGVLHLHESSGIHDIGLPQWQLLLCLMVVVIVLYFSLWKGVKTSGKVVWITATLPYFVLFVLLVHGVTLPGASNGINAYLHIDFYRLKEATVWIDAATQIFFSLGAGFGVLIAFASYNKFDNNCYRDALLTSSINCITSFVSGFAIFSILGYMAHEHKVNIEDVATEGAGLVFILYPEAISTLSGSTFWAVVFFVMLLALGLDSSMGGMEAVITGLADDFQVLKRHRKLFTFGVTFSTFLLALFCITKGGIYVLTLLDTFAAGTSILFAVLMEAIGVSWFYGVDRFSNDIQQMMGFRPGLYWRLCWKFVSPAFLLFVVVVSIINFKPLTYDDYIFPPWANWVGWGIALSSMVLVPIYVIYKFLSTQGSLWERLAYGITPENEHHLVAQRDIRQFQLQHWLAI
Chain of hERG (Q12809 whole entry): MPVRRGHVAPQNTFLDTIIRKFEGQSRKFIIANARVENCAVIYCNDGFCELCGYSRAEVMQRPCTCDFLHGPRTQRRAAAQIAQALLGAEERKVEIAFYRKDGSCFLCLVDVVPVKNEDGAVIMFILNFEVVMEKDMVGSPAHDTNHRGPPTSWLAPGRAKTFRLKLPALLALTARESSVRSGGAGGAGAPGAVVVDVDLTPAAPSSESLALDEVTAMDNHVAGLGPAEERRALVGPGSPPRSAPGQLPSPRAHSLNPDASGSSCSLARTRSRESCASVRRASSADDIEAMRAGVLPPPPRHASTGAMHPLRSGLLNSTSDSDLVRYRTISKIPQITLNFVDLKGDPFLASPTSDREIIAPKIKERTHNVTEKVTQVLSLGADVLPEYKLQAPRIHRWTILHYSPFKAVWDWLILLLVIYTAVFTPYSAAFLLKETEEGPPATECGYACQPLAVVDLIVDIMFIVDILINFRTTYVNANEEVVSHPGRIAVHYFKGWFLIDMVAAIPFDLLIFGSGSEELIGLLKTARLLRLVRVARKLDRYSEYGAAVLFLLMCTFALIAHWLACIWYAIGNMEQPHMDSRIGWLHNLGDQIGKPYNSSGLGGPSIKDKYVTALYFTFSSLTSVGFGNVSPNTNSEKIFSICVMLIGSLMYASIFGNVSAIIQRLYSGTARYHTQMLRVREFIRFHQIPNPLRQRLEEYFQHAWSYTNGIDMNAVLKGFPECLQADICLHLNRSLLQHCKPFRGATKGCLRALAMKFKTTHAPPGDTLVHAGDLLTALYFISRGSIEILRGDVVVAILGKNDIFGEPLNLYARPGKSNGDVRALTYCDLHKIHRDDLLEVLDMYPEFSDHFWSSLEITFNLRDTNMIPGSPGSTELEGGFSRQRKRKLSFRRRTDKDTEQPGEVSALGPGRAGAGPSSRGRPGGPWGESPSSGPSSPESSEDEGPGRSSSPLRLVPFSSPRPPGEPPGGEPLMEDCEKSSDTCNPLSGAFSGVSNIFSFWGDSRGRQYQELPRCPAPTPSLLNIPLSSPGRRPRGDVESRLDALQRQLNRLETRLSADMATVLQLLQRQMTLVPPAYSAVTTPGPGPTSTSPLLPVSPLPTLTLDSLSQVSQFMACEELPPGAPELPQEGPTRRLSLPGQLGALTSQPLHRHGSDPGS

SMILES: Oc1cc(Cl)ccc1Oc1ccc(Cl)cc1Cl [Triclosan]
- LD50 [1]: 29 mg/kg

SMILES: CCc1cc(O)c(Oc2ccc(C(N)=O)cc2F)cc1F [Example 1, 4-(4-Ethyl-5-fluoro-2-hydroxyphenoxy)-3-fluorobenzamide]
- Fold more soluble than comparative example 2 ([2]; 20% hydroxypropyl beta cyclodextrin with 5% dextrose): ~5 fold
- solubility at 24 h [2]: 11300 µg/mL (≈ 38500 µM)
- Fold more soluble than comparative example 2 [3]: two fold
- solubility at 24 h [3]: 16 µg/mL (≈ 54.6 µM)
- MIC (S. aureus CIP 54.146): 0.063 to 0.125 µg/mL (≈ 0.215 to 0.426 µM)
- IC50 (E. coli FabI enzyme): 0.058 to 0.068 µM
- Affinity or activity in 112 in vitro binding assays and 42 in vitro enzyme assays [4]: devoid of any significant affinity or activity
- Inhibition of human norepinephrine transporter [5]: 88%
- Type of antibacterial effect ([6]; target bacterial populations): bacteriostatic or slow bactericidal effect
- Spontaneous mutation rate towards drug resistance ([6]; target bacterial populations exposed to the compound): approximately 10^−9
- Cross resistance with glycopeptides (Vancomycin) and oxazolidinones (Linezolid) ([6]; target microbial populations): no cross resistance
- Corrected QT after the end of infusion versus control group ([7]; after the end of infusion): generally lower than in the control group
- QT interval prolongation ([7]; single intravenous infusion at 25, 50 and 100 mg/kg): no QT interval prolongation was observed
- In vitro activity against MSSA, MRSA, VISA and VRSA strains [8]: highly active
- Tolerability in functional observation battery and respiration function assays [9]: well tolerated
- inhibition at 30 µM (hERG): 35.3%
- Adverse effects during in vivo studies [10]: no major adverse effects were reported
- In vivo activity in a murine model [11]: active in vivo
- Activity against Streptococcus and Enterococcus [12]: no activity
- IC50 (FabI from S. aureus): 0.012 to 0.014 µM

SMILES: CCc1cc(O)c(Oc2cccnc2F)cc1F [Comparative Example 2, 5-Ethyl-4-fluoro-2-(2-fluoropyridin-3yloxy)phenol, reference compound]
- solubility at 24 h [2]: 2400 µg/mL (≈ 9550 µM)
- solubility at 24 h [3]: 8 µg/mL (≈ 31.8 µM)
- MIC (S. aureus CIP 54.146): 0.063 µg/mL (≈ 0.251 µM)
- IC50 (E. coli FabI enzyme; recombinant E. coli FabI, range over a number of batches, read-out: FabI Inhibition IC50 (μM) E. coli): 0.019 to 0.065 µM
- IC50 (FabI from S. aureus; recombinant S. aureus FabI, range over a number of batches, read-out: FabI Inhibition IC50 (μM) S. aureus): 0.008 to 0.017 µM
